Measurements taken from patent US10743540B2, “3-amino-1,2,4-triazine derivatives and their use for controlling undesired plant growth” (BAYER CROPSCIENCE AKTIENGESELLSCHAFT, priority 2016, dated 2020).

Experiments:
Type in all cases: in vivo
[1] = tested on: ALOMY: Alopecurus myosuroides; assay: Pre-emergence herbicidal effect; conditions: application rate 320 g/ha, scored visually after 3 weeks, 100% = plants have died, 0% = like control plants
Source text: (§1) 1. Pre-Emergence Herbicidal Effect and Crop Plant Compatibility Seeds of monocotyledonous and dicotyledonous weed plants and crop plants are laid out in sandy loam soil in wood-fiber pots and covered with soil. The compounds of the invention, formulated in the form of wettable powders (WP) or as emulsion concentrates (EC), are then applied to the surface of the covering soil as aqueous suspension or emulsion at a water application rate equating to 600 to 800 L/ha with addition of 0.2% wetting agent. After the treatment, the pots are placed in a greenhouse and kept under good growth conditions for the trial plants. The damage to the test plants is scored visually after a test period of 3 weeks by comparison with untreated controls (herbicidal activity in percent (%): 100% activity=the plants have died, 0% activity=like control plants). [table]

[2] = tested on: ECHCG: Echinochloa crus-galli; assay: Pre-emergence herbicidal effect; conditions: application rate 320 g/ha, scored visually after 3 weeks, 100% = plants have died, 0% = like control plants
Source text: as §1

[3] = tested on: LOLMU: Lolium multiflorum; assay: Pre-emergence herbicidal effect; conditions: application rate 320 g/ha, scored visually after 3 weeks, 100% = plants have died, 0% = like control plants
Source text: as §1

[4] = tested on: MATIN: Matricaria inodora; assay: Pre-emergence herbicidal effect; conditions: application rate 320 g/ha, scored visually after 3 weeks, 100% = plants have died, 0% = like control plants
Source text: as §1

[5] = tested on: POLCO: Polygonum convolvulus; assay: Pre-emergence herbicidal effect; conditions: application rate 320 g/ha, scored visually after 3 weeks, 100% = plants have died, 0% = like control plants
Source text: as §1

SETVI: Setaria viridis = assay: Pre-emergence herbicidal effect; conditions: application rate 320 g/ha, scored visually after 3 weeks, 100% = plants have died, 0% = like control plants
Source text: as §1

STEME: Stellaria media [6] = assay: Pre-emergence herbicidal effect; conditions: application rate 320 g/ha, scored visually after 3 weeks, 100% = plants have died, 0% = like control plants
Source text: as §1

VERPE: Veronica persica [7] = assay: Pre-emergence herbicidal effect; conditions: application rate 320 g/ha, scored visually after 3 weeks, 100% = plants have died, 0% = like control plants
Source text: as §1

[8] = tested on: ALOMY: Alopecurus myosuroides; assay: Post-emergence herbicidal effect; conditions: application rate 320 g/ha, treated at one-leaf stage, assessed visually after about 3 weeks, 100% = plants have died
Method: (§2) [table] 2. Post-Emergence Herbicidal Effect and Crop Plant Compatibility Seeds of monocotyledonous and dicotyledonous weed and crop plants are laid out in sandy loam soil in wood-fiber pots, covered with soil and cultivated in a greenhouse under good growth conditions. 2 to 3 weeks after sowing, the test plants are treated at the one-leaf stage. The compounds of the invention, formulated in the form of wettable powders (WP) or as emulsion concentrates (EC), are then sprayed onto the green parts of the plants as aqueous suspension or emulsion at a water application rate equating to 600 to 800 L/ha with addition of 0.2% wetting agent. After the test plants have been left to stand in the greenhouse under optimal growth conditions for about 3 weeks, the action of the preparations is assessed visually in comparison to untreated controls (herbicidal action in percent (%): 100% activity=the plants have died, 0% activity=like control plants).

[9] = tested on: AMARE: Amaranthus retroflexus; assay: Post-emergence herbicidal effect; conditions: application rate 320 g/ha, treated at one-leaf stage, assessed visually after about 3 weeks, 100% = plants have died
Method: as §2

[10] = tested on: ECHCG: Echinochloa crus-galli; assay: Post-emergence herbicidal effect; conditions: application rate 320 g/ha, treated at one-leaf stage, assessed visually after about 3 weeks, 100% = plants have died
Method: as §2

STEME: Stellaria media [11] = assay: Post-emergence herbicidal effect; conditions: application rate 320 g/ha, treated at one-leaf stage, assessed visually after about 3 weeks, 100% = plants have died
Method: as §2

VERPE: Veronica persica [12] = assay: Post-emergence herbicidal effect; conditions: application rate 320 g/ha, treated at one-leaf stage, assessed visually after about 3 weeks, 100% = plants have died
Method: as §2

VIOTR: Viola tricolor = assay: Post-emergence herbicidal effect; conditions: application rate 320 g/ha, treated at one-leaf stage, assessed visually after about 3 weeks, 100% = plants have died
Method: as §2

[13] = tested on: ABUTH: Abutilon theophrasti; assay: Pre-emergence herbicidal effect; conditions: application rate 320 g/ha, scored visually after 3 weeks, 100% = plants have died, 0% = like control plants
Source text: as §1

| SMILES | Herbicidal activity with respect to [%] ALOMY [1] [%] | Herbicidal activity with respect to [%] ECHCG [2] [%] | Herbicidal activity with respect to [%] LOLMU [3] [%] | Herbicidal activity with respect to [%] MATIN [4] [%] | Herbicidal activity with respect to [%] POLCO [5] [%] | Herbicidal activity with respect to [%] SETVI (SETVI: Setaria viridis) [%] | Herbicidal activity with respect to [%] STEME (STEME: Stellaria media [6]) [%] | Herbicidal activity with respect to [%] VERPE (VERPE: Veronica persica [7]) [%] | Herbicidal activity with respect to [%] ALOMY [8] [%] | Herbicidal activity with respect to [%] AMARE [9] [%] | Herbicidal activity with respect to [%] ECHCG [10] [%] | Herbicidal activity with respect to [%] STEME (STEME: Stellaria media [11]) [%] | Herbicidal activity with respect to [%] VERPE (VERPE: Veronica persica [12]) [%] | Herbicidal activity with respect to [%] VIOTR (VIOTR: Viola tricolor) [%] | Herbicidal activity with respect to [%] ABUTH [13] [%] |
| --- | --- | --- | --- | --- | --- | --- | --- | --- | --- | --- | --- | --- | --- | --- | --- |
| Nc1nc(NC2CCOc3ccc(F)cc32)nnc1C(F)(F)F (racemic) [Example 1.49] | 100 | 100 | 100 | 100 | 100 | 100 | 100 | 100 | 80 | 80 | 80 | 90 | 100 | 90 |  |
| CCOC(=O)c1nnc(N[C@H]2c3cc(C)ccc3C[C@@H]2C)nc1N [Example 1.21] | 90 | 100 |  | 100 | 100 | 100 |  | 80 | 80 | 90 | 80 | 100 | 100 | 80 |  |
| Nc1nc(N[C@@H]2CCCc3ccccc32)nnc1C(F)(F)F [Example 1.22] | 100 | 100 |  | 100 | 100 | 100 | 100 | 100 | 100 | 100 | 100 | 100 | 100 | 100 | 90 |
| CC(=O)c1nnc(N[C@H]2c3cc(C)ccc3C[C@@H]2C)nc1N [Example 1.26] | 100 | 100 |  | 100 | 100 | 100 | 100 | 100 |  | 90 | 100 | 100 | 100 | 100 | 100 |
| Cc1ccc2c(c1)[C@H](Nc1nnc(S(C)(=O)=O)c(N)n1)[C@@H](C)C2 [Example 1.45] | 100 | 100 | 100 | 100 | 100 | 100 | 100 | 100 |  | 80 | 100 | 90 | 90 | 90 | 90 |
| Nc1nc(NC2CCOc3ccccc32)nnc1C(F)(F)F (stereo not shown) [Example 1.47, N^3-(3,4-Dihydro-2H-chromen-4-yl)-6-(trifluoromethyl)-1,2,4-triazine-3,5-diamine] | 80 | 100 |  | 100 | 100 | 100 | 100 | 100 | 100 | 100 | 100 | 100 | 100 | 100 |  |
| CS(=O)(=O)c1nnc(N[C@@H]2CCCc3ccccc32)nc1N [Example 1.66] | 80 | 100 | 100 | 100 | 100 | 100 | 100 | 100 |  |  |  | 100 | 100 | 90 | 100 |
| Cc1ccc2c(c1)[C@H](Nc1nnc(S(C)(=O)=O)c(N)n1)CCC2 [Example 1.68] | 100 | 100 | 100 | 100 | 100 | 100 | 100 | 100 | 100 |  | 80 | 100 | 80 | 90 | 100 |
| Cc1ccc2c(c1)[C@H](Nc1nnc([S+](C)[O-])c(N)n1)CCC2 (stereo partly shown) [Example 1.69] | 90 | 100 | 90 | 100 | 100 | 100 | 100 | 100 | 90 | 90 | 80 | 100 | 80 | 80 |  |
| CNC(=O)c1nnc(N[C@@H]2CCc3ccc(C)cc32)nc1N [Example 1.76] | 100 | 100 |  | 100 | 100 | 100 |  |  | 80 | 80 |  | 100 |  |  | 100 |
| Cc1ccc2c(c1)[C@H](Nc1nnc(C(N)=O)c(N)n1)CC2 [Example 1.78] | 100 | 100 |  | 100 | 90 | 100 |  |  | 100 | 80 |  | 100 |  | 80 | 100 |
